Read-outs that look alike come from different tables or passages of the source.
How the values were obtained:
Phytophthora infestans = assay type: in vivo; conditions: potato plants, scale 100 to 0
Plasmopara viticola = assay: 7-day preventive activity on Plasmopara viticola, leaf application on vines; assay type: in vivo
Experimental: Leaves of cultivar Merlot vines, grown in vases, in a conditioned environment (20±1° C., 70% relative humidity) are treated by spraying both sides of the leaves with the mixtures under examination dispersed in an aqueous solution containing a 0.3% of tween 20.
After remaining 7 days in a conditioned environment, the plants are infected on the lower side with an aqueous suspension of spores of Plasmopara viticola (200,000 spores per cm^3).
The plants are kept in a humidity saturated environment, at 21° C., for the incubation period of the fungus and, at the end of this period (7 days), the fungicidal activity is evaluated according to an evaluation percentage scale from 100 (healthy plant) to 0 (completely infected plant).
From the data indicated in tables 1-2, it is possible to verify the synergistic effect of the mixtures, consisting of the mixtures being examined, compared with the expected efficacy using the Limpel formula (“Pesticide Science” (1987), vol. 19, pages 309-315): […]
wherein: • E is the fungicidal activity expected, in the absence of synergistic effects, from a mixture obtained by mixing g·x of compound X with g·y of compound Y; • x is the activity of compound X when used alone with a dosage of g·x; • y is the activity of compound Y when used alone with a dosage of g·y. […]

Compound: O=[PH]([O-])[O-].[Cu+2] [CuHPO3, copper (II) salt of phosphorous acid]
- Activity (y) (Phytophthora infestans; Table 4: listed phosphite salt(s) alone at 750 ppm equivalent phosphorous acid): 12
- Activity (y) (Phytophthora infestans; Table 5: listed phosphite salt(s) alone at 750 ppm equivalent phosphorous acid): 12
- Activity (y) (Plasmopara viticola; listed phosphite salt(s) alone at 250 ppm equivalent phosphorous acid, scale 100 to 0): 35

Compound: K2HPO3 [Mixture K2HPO3]
- Activity (y) (Phytophthora infestans; listed salt alone at 750 ppm equivalent phosphorous acid): 5
- Activity (y) (Plasmopara viticola; listed salt alone at 500 ppm equivalent phosphorous acid, scale 100 (healthy) to 0 (completely infected)): 45

— patent publication US20090081174A1 (priority 2005, published 2009)
